Data reported in ChEMBL document CHEMBL3808378, “Enantioselective syntheses of both enantiomers of 9'-dehydroxyimperanene and 7,8-dihydro-9'-dehydroxyimperanene and the comparison of biological activity between 9-norlignans and dihydroguaiaretic acids” (Bioorg Med Chem Lett, 2016).
Converted amounts (≈) assume the structure as drawn.

Legend:
HeLa = test: Cytotoxicity against human HeLa cells assessed as reduction in cell viability after 48 hrs by WST-8 reduction assay; format: functional, cell-based
[1] = Cytotoxicity against human HL60 cells assessed as reduction in cell viability after 48 hrs by WST-8 reduction assay; format: functional, cell-based; details: HL-60, 48 h
Bacillus subtilis = test: Antibacterial activity against Bacillus subtilis subsp. subtilis NBRC 13719 after 24 hrs by 2 fold dilution method; format: functional; details: NBRC 13719, 24 h
Culex pipiens = test: Antilarvicidal activity against Culex pipiens larvae after 24 hrs; format: functional
Lolium multiflorum [2] = test: Growth inhibition of Italian ryegrass assessed as reduction in shoot growth at 1 mM after 5 days; format: functional; details: 120 h, read-out: GI
[3] = Antifungal activity against Bipolaris oryzae assessed as mycelial colony growth levels at 0.25 mM after 3 days by caliper analysis; format: functional
Alternaria alternata = test: Antifungal activity against Alternaria alternata assessed as mycelial colony growth at 0.25 mM after 3 days by caliper analysis; format: functional
Jonesia denitrificans = test: Antibacterial activity against Listeria denitrificans JCM 11481 after 24 hrs by 2 fold dilution method; format: functional; details: JCM 11481, 24 h
Fusarium solani = test: Antifungal activity against Fusarium solani assessed as mycelial colony growth levels at 0.25 mM after 3 days by caliper analysis; format: functional
[4] = Cytotoxicity against fall armyworm Sf9 cells assessed as reduction in cell viability after 48 hrs by WST-8 reduction assay; format: cell-based; details: Spodoptera frugiperda, Sf9, 48 h
Colletotrichum lagenaria = test: Antifungal activity against Colletotrichum lagenarium assessed as mycelial colony growth levels at 0.25 mM after 5 days by caliper analysis; format: functional
Lolium multiflorum [5] = test: Growth inhibition of Italian ryegrass assessed as reduction in root growth at 1 mM after 5 days; format: functional; details: 120 h, read-out: GI
[6] = Selectivity index, ratio of IC50 for fall armyworm sf9 cells to IC50 for Cytotoxicity against human HeLa cells; format: toxicity, cell-based; details: fall armyworm and human, read-out: Ratio IC50
[7] = Selectivity index, ratio of IC50 for fall armyworm Sf9 cells to IC50 for Cytotoxicity against human HL60 cells; format: toxicity, cell-based; details: fall armyworm and human, read-out: Ratio IC50
Salmonella enterica = test: Antibacterial activity against Salmonella choleraesuis subsp. choleraesuis JCM 6977 after 24 hrs by 2 fold dilution method; format: functional; details: JCM 6977, 24 h

**Q.** For `COc1cc(/C=C/[C@H](C)Cc2ccc(O)c(OC)c2)ccc1O`, which IC50 (HeLa) is on record?
**A.** The IC50 was 18 µM.

**Q.** And the IC50 [1]?
**A.** The IC50 was 14 µM.

**Q.** And the MIC (Bacillus subtilis)?
**A.** Its MIC is 6.25 mM (≈ 1960 µg/mL).

**Q.** What about the LD50 (Culex pipiens) of the same molecule?
**A.** Its LD50 is 11 ×10⁻⁵ M.

**Q.** And the inhibition of growth at 1000 µM (Lolium multiflorum [2])?
**A.** Its inhibition of growth at 1000 µM is 14.8%.

**Q.** What about the Activity [3] of the same molecule?
**A.** The Activity was 66.4%.

**Q.** What about the Activity (Alternaria alternata) of the same molecule?
**A.** The Activity was 66%.

**Q.** What about the MIC (Jonesia denitrificans) of the same molecule?
**A.** Its MIC is 3130 µM (≈ 984 µg/mL).

**Q.** What about the Activity (Fusarium solani) of the same molecule?
**A.** Its Activity is 95.7%.

**Q.** And the IC50 [4]?
**A.** The IC50 was 32 µM.

**Q.** And the Activity (Colletotrichum lagenaria)?
**A.** Its Activity is 49.4%.

**Q.** What about the inhibition of growth at 1000 µM (Lolium multiflorum [5]) of the same molecule?
**A.** Its inhibition of growth at 1000 µM is 11.5%.

**Q.** With `COc1cc(/C=C/[C@@H](C)Cc2ccc(O)c(OC)c2)ccc1O` as the molecule, how does the IC50 (HeLa) read?
**A.** Its IC50 is 19 µM.

**Q.** And the IC50 [1]?
**A.** Its IC50 is 21 µM.

**Q.** What about the MIC (Bacillus subtilis) of the same molecule?
**A.** The MIC was 6.25 mM (≈ 1960 µg/mL).

**Q.** What about the LD50 (Culex pipiens) of the same molecule?
**A.** Its LD50 is 48 ×10⁻⁵ M.

**Q.** What about the inhibition of growth at 1000 µM (Lolium multiflorum [2]) of the same molecule?
**A.** The inhibition of growth at 1000 µM was 5.2%.

**Q.** And the Activity [3]?
**A.** The Activity was 57.6%.

**Q.** What about the Activity (Alternaria alternata) of the same molecule?
**A.** The Activity was 43.3%.

**Q.** And the MIC (Jonesia denitrificans)?
**A.** Its MIC is 3130 µM (≈ 984 µg/mL).

**Q.** What about the Activity (Fusarium solani) of the same molecule?
**A.** The Activity was 96.1%.

**Q.** And the IC50 [4]?
**A.** The IC50 was 30 µM.

**Q.** What about the Activity (Colletotrichum lagenaria) of the same molecule?
**A.** Its Activity is 67.8%.

**Q.** What about the inhibition of growth at 1000 µM (Lolium multiflorum [5]) of the same molecule?
**A.** The inhibition of growth at 1000 µM was 14.8%.

**Q.** Which results are given for `COc1cc(CC[C@H](C)Cc2ccc(O)c(OC)c2)ccc1O`?
**A.** selectivity ratio [6]: 2; IC50 (HeLa): 6.1 µM; IC50 [1]: 5.6 µM; MIC (Bacillus subtilis): 3.13 mM (≈ 990 µg/mL); LD50 (Culex pipiens): 9.67 ×10⁻⁵ M; inhibition of growth at 1000 µM (Lolium multiflorum [2]): 19.9%; Activity [3]: 46.4%; Activity (Alternaria alternata): 44.4%; MIC (Jonesia denitrificans): 1560 µM (≈ 494 µg/mL); Activity (Fusarium solani): 95.4%; IC50 [4]: 12 µM; Activity (Colletotrichum lagenaria): 43.1%; selectivity ratio [7]: 2; inhibition of growth at 1000 µM (Lolium multiflorum [5]): 13.3%

**Q.** For `COc1cc(C[C@H](C)[C@@H](C)Cc2ccc(O)c(OC)c2)ccc1O`, which selectivity ratio [6] is on record?
**A.** The selectivity ratio was 1.3.

**Q.** And the IC50 (HeLa)?
**A.** Its IC50 is 24 µM.

**Q.** And the IC50 [1]?
**A.** Its IC50 is 32 µM.

**Q.** What about the MIC (Bacillus subtilis) of the same molecule?
**A.** The MIC was 1.56 mM (≈ 515 µg/mL).

**Q.** And the LD50 (Culex pipiens)?
**A.** Its LD50 is 4.03 ×10⁻⁵ M.

**Q.** What about the inhibition of growth at 1000 µM (Lolium multiflorum [2]) of the same molecule?
**A.** The inhibition of growth at 1000 µM was 17.8%.

**Q.** What about the Activity [3] of the same molecule?
**A.** Its Activity is 49.9%.

**Q.** And the Activity (Alternaria alternata)?
**A.** The Activity was 38%.

**Q.** And the MIC (Jonesia denitrificans)?
**A.** The MIC was 390 µM (≈ 129 µg/mL).

**Q.** What about the Activity (Fusarium solani) of the same molecule?
**A.** The Activity was 34.5%.

**Q.** What about the MIC (Salmonella enterica) of the same molecule?
**A.** Its MIC is 3.13 mM (≈ 1030 µg/mL).

**Q.** And the IC50 [4]?
**A.** Its IC50 is 18 µM.

**Q.** What about the Activity (Colletotrichum lagenaria) of the same molecule?
**A.** Its Activity is 20.1%.

**Q.** And the selectivity ratio [7]?
**A.** Its selectivity ratio is 1.3.

**Q.** And the inhibition of growth at 1000 µM (Lolium multiflorum [5])?
**A.** Its inhibition of growth at 1000 µM is 51.9%.

**Q.** Which selectivity ratio [6] does the source give for `COc1cc(C[C@@H](C)[C@@H](C)Cc2ccc(O)c(OC)c2)ccc1O` [MESODIHYDROGUAIARETIC ACID] here?
**A.** The selectivity ratio was 1.3.

**Q.** What about the IC50 (HeLa) of the same molecule?
**A.** The IC50 was 28 µM.

**Q.** What about the IC50 [1] of the same molecule?
**A.** Its IC50 is 41 µM.

**Q.** And the MIC (Bacillus subtilis)?
**A.** The MIC was 1.56 mM (≈ 515 µg/mL).

**Q.** And the LD50 (Culex pipiens)?
**A.** Its LD50 is 5.12 ×10⁻⁵ M.

**Q.** What about the inhibition of growth at 1000 µM (Lolium multiflorum [2]) of the same molecule?
**A.** The inhibition of growth at 1000 µM was 20.9%.

**Q.** And the Activity [3]?
**A.** Its Activity is 53.7%.

**Q.** And the Activity (Alternaria alternata)?
**A.** Its Activity is 30%.

**Q.** And the MIC (Jonesia denitrificans)?
**A.** Its MIC is 1560 µM (≈ 515 µg/mL).

**Q.** What about the Activity (Fusarium solani) of the same molecule?
**A.** The Activity was 45.8%.

**Q.** And the IC50 [4]?
**A.** Its IC50 is 17 µM.

**Q.** And the Activity (Colletotrichum lagenaria)?
**A.** Its Activity is 26%.

**Q.** What about the selectivity ratio [7] of the same molecule?
**A.** Its selectivity ratio is 1.3.

**Q.** And the inhibition of growth at 1000 µM (Lolium multiflorum [5])?
**A.** Its inhibition of growth at 1000 µM is 68.8%.

**Q.** What does the source list for `COc1cc(CC[C@@H](C)Cc2ccc(O)c(OC)c2)ccc1O`?
**A.** IC50 (HeLa): 21 µM; IC50 [1]: 12 µM; MIC (Bacillus subtilis): 3.13 mM (≈ 990 µg/mL); LD50 (Culex pipiens): 9.9 ×10⁻⁵ M; inhibition of growth at 1000 µM (Lolium multiflorum [2]): 2.2%; Activity [3]: 47.2%; Activity (Alternaria alternata): 32.3%; MIC (Jonesia denitrificans): 1560 µM (≈ 494 µg/mL); Activity (Fusarium solani): 70.1%; MIC (Salmonella enterica): 6.25 mM (≈ 1980 µg/mL); IC50 [4]: 25 µM; Activity (Colletotrichum lagenaria): 39.4%; inhibition of growth at 1000 µM (Lolium multiflorum [5]): -7.01%

**Q.** Which IC50 (HeLa) does the source give for `COc1cc(C[C@@H](C)[C@H](C)Cc2ccc(O)c(OC)c2)ccc1O` [(-)-DIHYDROGUAIARETICACID] here?
**A.** The IC50 was 26 µM.

**Q.** And the IC50 [1]?
**A.** Its IC50 is 22 µM.

**Q.** What about the MIC (Bacillus subtilis) of the same molecule?
**A.** The MIC was 1.56 mM (≈ 515 µg/mL).

**Q.** What about the LD50 (Culex pipiens) of the same molecule?
**A.** The LD50 was 3.52 ×10⁻⁵ M.

**Q.** And the inhibition of growth at 1000 µM (Lolium multiflorum [2])?
**A.** Its inhibition of growth at 1000 µM is 14.9%.

**Q.** What about the Activity [3] of the same molecule?
**A.** The Activity was 49.9%.

**Q.** What about the Activity (Alternaria alternata) of the same molecule?
**A.** The Activity was 32%.

**Q.** And the MIC (Jonesia denitrificans)?
**A.** The MIC was 390 µM (≈ 129 µg/mL).

**Q.** What about the Activity (Fusarium solani) of the same molecule?
**A.** The Activity was 36.5%.

**Q.** What about the IC50 [4] of the same molecule?
**A.** Its IC50 is 29 µM.

**Q.** And the Activity (Colletotrichum lagenaria)?
**A.** Its Activity is 33.8%.

**Q.** What about the inhibition of growth at 1000 µM (Lolium multiflorum [5]) of the same molecule?
**A.** The inhibition of growth at 1000 µM was 18.4%.
